US20120288554A1, “CANFOSFAMIDE MONOTHERAPY FOR TREATING MULTIPLE MYELOMA” (Telik, Inc., priority 2011, published 2012)
Structures can show the parent of a compound that is named as a salt. Where two headings read alike, the source gives them in different places.

Key:
[1] = test system: refractory or relapsed multiple myeloma
Experimental: This example is a single arm, open label, Phase 2 clinical test that tests the safety and efficacy of canfosfamide monotherapy for the treatment of refractory or relapsed multiple myeloma. Refractory or relapsed multiple myeloma patients were administered canfosfamide hydrochloride in an amount of 1000 mg/m^2, intravenously (IV), over 30 minutes, once every 2 weeks (a cycle of therapy). Response was assessed after every 3 cycles of therapy.

[2] = test system: multiple myeloma; conditions: cited from earlier work

## N[C@@H](CCC(=O)N[C@@H](CS(=O)(=O)CCOP(=O)(N(CCCl)CCCl)N(CCCl)CCCl)C(=O)N[C@@H](C(=O)O)c1ccccc1)C(=O)O [canfosfamide hydrochloride]
[1]; Patient No. 1, after cycle #3
  IFE (with 24 hour UPEP): only IFE positive.
[1]; Patient No. 1, after cycle #3, baseline 0.19 mg/dL
  Lambda FLC: Lambda FLC: 0.23 mg/dL
[1]; Patient No. 1, after cycle #3, baseline 3.94 mg/dL
  Kappa FLC (monoclonal free light chains): Kappa FLC: 1.66 mg/dL
[1]; Patient No. 1, after cycle #3, baseline 0.4 grams
  24 hour UPEP (urine protein electrophoresis): 24 hour UPEP: 0.2 grams with
[1]; Patient No. 1, after cycle #3, baseline 20.74
  FLC Ratio (kappa to lambda): FLC Ratio: 7.22
[1]; Patient No. 1, after cycle #3 of monotherapy, 1000 mg/m^2 IV once every 2 weeks, baseline 1.3 g/dL
  SPEP M-spike (serum protein electrophoresis monoclonal protein level): SPEP M-spike: 1.0 g/dL
[1]; Patient No. 1, after cycle #6
  FLC Ratio: FLC Ratio: 2.32
  IFE: albumin and IFE: negative.
  Kappa FLC: Kappa FLC: 1.44 mg/dL
  Lambda FLC: Lambda FLC: 0.62 mg/dL
  Overall disease response: “partial response.”
[1]; Patient No. 1, after cycle #6, baseline 75%
  Bone Marrow Biopsy plasma cells: Bone Marrow Biopsy: 20%
[1]; Patient No. 1, after cycle #6, with albumin
  24 hour UPEP: 24 hour UPEP: 0.5 grams with
[1]; Patient No. 1, after cycle #6 of monotherapy, baseline 1.3 g/dL
  SPEP M-spike: SPEP M-spike: 0.18 g/dL
[1]; Patient No. 2, after cycle #3, baseline 282 mg/dL
  Lambda FLC: Lambda FLC: 218 mg/dL
[1]; Patient No. 2, after cycle #3, baseline 7.9 grams
  24 hour UPEP: 24 hour UPEP: 5.8 grams.
[1]; Patient No. 2, after cycle #3, baseline <0.11 mg/dL
  Kappa FLC: Kappa FLC: <0.11 mg/dL
[1]; Patient No. 2, after cycle #3 of monotherapy, baseline 5.37 g/dL
  SPEP M-spike: SPEP M-spike: 3.18 g/dL
[1]; Patient no. 1, 6 weeks and 12 weeks after initiating treatment
  Response to monotherapy on follow-up: continued to respond
[1]; after the first cycle of administration
  Tumor lysis syndrome: observed
[1]; multiple myeloma refractory to combination chemotherapy and/or radiation or stem cell transplantation
  Efficacy as monotherapy: effective as monotherapy
[1]; of the three multiple myeloma patients treated
  Patients demonstrating positive treatment outcomes: two

## CC(C)C[C@H](NC(=O)[C@H](Cc1ccccc1)NC(=O)c1cnccn1)B(O)O [Bortezomib, bortezomib]
[2]; patients with multiple myeloma
  Peripheral neuropathy: dose-limiting toxicity

## O=C1CCC(N2C(=O)c3ccccc3C2=O)C(=O)N1 (stereo not shown) [Thalidomide, thalidomide]
[2]; thalidomide alone, relapsed/refractory multiple myeloma patients
  Partial remission rate: about 30 % of patients

## Nc1cccc2c1CN(C1CCC(=O)NC1=O)C2=O (stereo not shown) [Lenalidomide, lenalidomide]
[2]; nearly all lenalidomide trials
  Venous thromboembolic (VTE) adverse effects: increased risk of VTE
